Results as given in patent US4122199A, “Amides of pyrrolidinoethylamine which can be used in treatment of coughs” (Pierre Fabre S.A., priority 1976, dated 1978).
Structures can show the parent of a compound that is named as a salt. Where two headings read alike, the source gives them in different places.

How the values were obtained:
[1] = Solubility characteristics; assay type: physicochemical; settings: for Solubility in water / solubility: water
[2] = tested on: mice; assay: in vivo; settings: isotonic aqueous solution
Procedure: (§1) It is determined on mice, the products being administered orally, intraperitoneally, and intraveneously in isotonic aqueous solution.

[3] = in vivo; settings: mouse, in vivo, mice, isotonic aqueous solution
Procedure: as §1

[4] = tested on: mice; assay: Antalgic properties: decrease in contortions caused by phenyl benzoquinone, in mice; assay type: in vivo; settings: 150 mg/kg by mouth
Procedure: The antalgic properties with respect to a decrease in contortions caused by phenyl benzoquinone, as measured in mice, are very clear from the 150 mg/kg by mouth in the case of F 1534 (40% decrease), F 1539 (75% decrease), and F 1541 (60% decrease).

[5] = tested on: guinea pigs; assay: Citric acid aerosol method on guinea pigs (antitussive); assay type: in vivo; settings: for change in vivo at 50 mg/kg: Cavia porcellus, ip, 0.25 h, 50 mg/kg i.p., 20 minutes before 20% citric acid aerosol, read-out: % reduction of no. of coughs in 15 minutes; for % decrease in no. coughs in 15 mins.: orally, citric acid aerosol
Procedure: The animals were subjected to a 20% citric acid aerosol for 15 minutes.
The coughs were recorded by a microphone.
The products were administered intraperitoneally 20 minutes before the exposure to the aerosol.
Some derivatives were also tested orally.

[6] = Local anesthesia activity; settings: compared with procaine
[7] = tested on: guinea pig; assay: Takagi's technique: coughing by mechanical stimulation of the tracheal bifurcation in the unanesthetized guinea pig; assay type: in vivo; settings: 50 mg/kg i.p.; for Cough rating, m = average of the ratings, after treatment: 1 heavy, 0.5 light, 0 no cough
Procedure: A second method using a different type of stimulation of coughs made it possible to note, as compared with codeine, the antitussive properties of the main components claimed.
The technique employed is derived from Takagi's technique, and consists in causing coughing by mechanical stimulation of the tracheal bifurcation in the unanesthetized guinea pig.
The cough is evaluated by the research worker in accordance with the following scale:
The products are administered intraperitoneally and the stimulation is effected 10 and 20 minutes after the injection.

[8] = tested on: Pseudomonas aeruginosa; assay: Fungistatic/bacteriostatic effect, Pseudomonas aeruginosa; assay type: cell-based; settings: compared with S. aureus and E. coli
Procedure: (§2) The determination of fungistatic bacteriostatic properties was carried out by two methods on four strains:
(§3) Halved serial dilutions are formed in a hemoylsis tube, in each case to a volume of 1 ml; each dilution is inoculated with 10^6 micro-organisms per ml. After 48 hours in the oven, the minimum inhibitory concentration is determined. A subculture of the negative tubes (bacteriostatic), makes it possible to note the bactericidal concentration.

[9] = tested on: Candida albicans; assay: Fungistatic/bacteriostatic effect, Candida albicans; assay type: cell-based; settings: compared with S. aureus and E. coli
Procedure: as §2, §3

[10] = tested on: micro-organisms; assay: Bactericidal action (subculture of the negative tubes); assay type: cell-based; settings: at concentrations of 1 g percent
Procedure: as §2, §3

[11] = ip, intraperitoneal, read-out: DL 50 intraperitoneal
[12] = iv, intravenous, read-out: DL 50 intravenous

O=C(NCCN1CCCC1)C(c1ccccc1)c1ccccc1 [F 1630, N(2-pyrrolidino-ethyl)-α,α-diphenyl-acetamide palmitate]
Solubility in alcohol ([1]; in words): Poorly soluble
Solubility in dimethyl acetamide ([1]; in words): Poorly soluble
Solubility in methyl pyrrolidone ([1]; in words): Poorly soluble
Solubility in propylene glycol ([1]; in words): Poorly soluble
Solubility in water ([1]; in words): Insoluble
DL 50 intraperitoneal [2]: 500 mg/kg
DL 50 oral [2]: 1500 mg/kg

C=CCOc1c(C)cc(Br)cc1C(=O)NCCN1CCCC1 [F 1479, N(2'-pyrrolidino-ethyl)-2-allyloxy-5-bromo-3-methyl benzamide hydrochloride]
Solubility in water ([1]; in words): very soluble

O=C(COc1ccc(Cl)cc1)NCCN1CCCC1 [F 1539, N(2'-pyrrolidino-ethyl)-4-chloro-phenoxy-acetamide hydrochloride]
Solubility in ethanol ([1]; in words): soluble
Solubility in propylene glycol ([1]; in words): soluble
Solubility in water ([1]; in words): soluble
LD50 [3, 11]: 178 mg/kg
LD50 ([3]; po, oral, read-out: DL 50 oral): 1000 mg/kg
decrease in contortions caused by phenyl benzoquinone [4]: 75%

O=C(C=Cc1ccccc1)NCCN1CCCC1 [F 1542, N(2'-pyrrolidino-ethyl)cinnamide, HCl]
Solubility in ethanol ([1]; in words): very soluble
Solubility in propylene glycol ([1]; in words): very soluble
Solubility in water ([1]; in words): very soluble
LD50 [3, 11]: 178 mg/kg
LD50 ([3]; po, oral, read-out: DL 50 oral): 1000 mg/kg
change in vivo at 50 mg/kg [5]: -19.5%

CCOC(C(=O)NCCN1CCCC1)(c1ccccc1)c1ccccc1 [F 1460, N(2-pyrrolidino-ethyl)-α,α-diphenyl-α-ethoxy-acetamide hydrochloride]
Solubility in ethanol ([1]; % soluble): 4%
Solubility in ether ([1]; in words): insoluble
solubility ([1]; % soluble): 10 mg/mL
LD50 [3, 11]: 178 mg/kg
LD50 [3, 12]: 40 mg/kg
LD50 ([3]; po, oral, read-out: DL 50 oral): 750 mg/kg

O=C(NCCN1CCCC1)C(O)(c1ccccc1)c1ccccc1 [F 1535, N(2'-pyrrolidino-ethyl)-α,α-diphenyl-hydroxy-acetamide hydrochloride]
Solubility in water ([1]; in words): very soluble
LD50 [3, 11]: 237 mg/kg
LD50 ([3]; oral, read-out: DL 50 oral): 562 mg/kg
local anesthesia activity [6]: high order of local anesthesia activity comparable to that of procaine

O=C(NCCN1CCCC1)C(c1ccccc1)c1ccccc1 [F 1459, N(2'-pyrrolidino-ethyl)-α,α-diphenyl acetamide hydrochloride]
Solubility in ethanol ([1]; % soluble): 5%
Solubility in propylene glycol ([1]; % soluble): 3%
solubility ([1]; % soluble): 250 mg/mL
LD50 [3, 12]: 48 mg/kg
DL 50 oral ([2]; hydrochloride): 562 mg/kg
% decrease in no. coughs in 15 mins. ([5]; 50 mg/kg, hydrochloride): -31
% variation of cough rating ([7]; t + 10 mn): -32%
Cough rating, m = average of the ratings, after treatment ([7]; t + 10 mn): 0,67
% variation of cough rating ([7]; t + 20 mn): -66%
Cough rating, m = average of the ratings, after treatment ([7]; t + 20 mn): 0,33
effect on Pseudomonas aeruginosa [8]: more moderate but significant effect
effect on Candida albicans [9]: more moderate but significant effect
bactericidal action [10]: real and significant

CC(C)(Oc1ccc(Cl)cc1)C(=O)NCCN1CCCC1 [F 1541, N(2'-pyrrolidino-ethyl)-4-chloro-phenoxy-isobutyramide hydrochloride]
Solubility in ethanol ([1]; in words): Soluble
Solubility in propylene glycol ([1]; in words): Soluble
Solubility in water ([1]; in words): Soluble
LD50 [3, 11]: 178 mg/kg
LD50 ([3]; po, oral, read-out: DL 50 oral): 562 mg/kg
local anesthesia activity [6]: high order of local anesthesia activity comparable to that of procaine
decrease in contortions caused by phenyl benzoquinone [4]: 60%

COc1cc(C(=O)NCCN2CCCC2)cc(OC)c1OC [F 1538, N(2'-pyrrolidino-ethyl)-3-4-5-trimethoxy-benzamide hydrochloride]
Solubility in ethanol ([1]; in words): soluble
Solubility in propylene glycol ([1]; in words): soluble
Solubility in water ([1]; in words): soluble
LD50 [3, 11]: 300 mg/kg
LD50 ([3]; po, oral, read-out: DL 50 oral): 562 mg/kg
change in vivo at 50 mg/kg [5]: -1%

O=C(O)c1ccccc1C(=O)NCCN1CCCC1 [F 1537, N(2'-pyrrolidino-ethyl)-2-carboxy-benzamide]
Solubility in ethanol ([1]; in words): very soluble
Solubility in propylene glycol ([1]; in words): very soluble
Solubility in water ([1]; in words): very soluble
LD50 [3, 11]: 500 mg/kg
LD50 ([3]; po, oral, read-out: DL 50 oral): 1000 mg/kg
change in vivo at 50 mg/kg [5]: -8%

CC(C)(Oc1ccccc1)C(=O)NCCN1CCCC1 [F 1540, N(2'-pyrrolidino-ethyl)phenoxy-isobutyramide hydrochloride]
Solubility in ethanol ([1]; in words): soluble
Solubility in propylene glycol ([1]; in words): soluble
Solubility in water ([1]; in words): soluble
LD50 [3, 11]: 237 mg/kg
LD50 ([3]; po, oral, read-out: DL 50 oral): 1000 mg/kg

O=C(NCCN1CCCC1)C(c1ccccc1)c1ccccc1 [F 1629, N(2-pyrrolidino-ethyl)-α,α-diphenyl-acetamide pamoate]
Solubility in alcohol ([1]; in words): Insoluble
Solubility in dimethyl acetamide ([1]; in words): Soluble
Solubility in methyl pyrrolidone ([1]; in words): Soluble
Solubility in water ([1]; in words): Insoluble
DL 50 intraperitoneal [2]: 750 mg/kg
DL 50 oral [2]: 2000 mg/kg
% decrease in no. coughs in 15 mins. ([5]; 50 mg/kg): -30
% decrease in no. coughs in 15 mins. ([5]; 100 mg/kg): -50

Cc1cc(Br)cc(C(=O)NCCN2CCCC2)c1O [Example 9, N(2'-pyrrolidino-ethyl)-5-bromo-3-methyl-salicylamide hydrochloride]
Solubility in ethanol ([1]; % soluble): 3%
Solubility in ether ([1]; in words): insoluble
Solubility in propylene glycol ([1]; % soluble): 7%
Solubility in water ([1]; in words): very soluble

O=C(NCCN1CCCC1)C(c1ccccc1)N1CCCCC1 (centres unmarked) [F 1533, N(2'-pyrrolidino-ethyl)phenyl piperidino-acetamide]
Solubility in ethanol ([1]; in words): Very soluble
Solubility in water ([1]; in words): insoluble
LD50 [3, 11]: 178 mg/kg
LD50 ([3]; po, oral, read-out: DL 50 oral): 750 mg/kg
change in vivo at 50 mg/kg [5]: -7%
effect on Pseudomonas aeruginosa [8]: more moderate but significant effect
effect on Candida albicans [9]: more moderate but significant effect
bactericidal action [10]: real and significant

O=C(NCCN1CCCC1)N1c2ccccc2Sc2ccccc21 [F 1461, N(2'-pyrrolidino-ethyl)-10-phenothiazine carboxamide hydrochloride]
Solubility in N-methyl pyrrolidone ([1]; N-methyl pyrrolidone, % soluble): 10%
Solubility in ethanol ([1]; % soluble): 10%
Solubility in propylene glycol ([1]; % soluble): 10%
solubility ([1]; % soluble): 100 mg/mL
LD50 [3, 11]: 178 mg/kg
LD50 [3, 12]: 26 mg/kg
LD50 ([3]; po, oral, read-out: DL 50 oral): 560 mg/kg
% decrease in no. coughs in 15 mins. ([5]; 50 mg/kg): -12
% decrease in no. coughs in 15 mins. ([5]; 100 mg/kg): -25
% variation of cough rating ([7]; t + 10 mn): -35%
Cough rating, m = average of the ratings, after treatment ([7]; t + 10 mn): 0,54
% variation of cough rating ([7]; t + 20 mn): -55%
Cough rating, m = average of the ratings, after treatment ([7]; t + 20 mn): 0,37

O=C(NCCN1CCCC1)C1c2ccccc2Oc2ccccc21 [F 1534, N(2'-pyrrolidino-ethyl)-9-xanthene carboxamide hydrochloride]
Solubility in ethanol ([1]; % soluble): 10%
Solubility in propylene glycol ([1]; % soluble): 10%
Solubility in water ([1]; in words): very soluble
LD50 [3, 11]: 178 mg/kg
LD50 ([3]; po, oral, read-out: DL 50 oral): 750 mg/kg
effect on Pseudomonas aeruginosa [8]: more moderate but significant effect
effect on Candida albicans [9]: more moderate but significant effect
bactericidal action [10]: real and significant
local anesthesia activity [6]: high order of local anesthesia activity comparable to that of procaine
decrease in contortions caused by phenyl benzoquinone [4]: 40%

O=C(NCCN1CCCC1)c1cc2ccccc2oc1=O [Example 14, N(2'-pyrrolidino-ethyl)-3-coumarin-carboxamide hydrochloride]
Solubility in ethanol ([1]; % soluble): 4%
Solubility in propylene glycol ([1]; % soluble): 7%
Solubility in water ([1]; in words): very soluble

O=C(NCCN1CCCC1)C1c2ccccc2-c2ccccc21 [F 1532, N(2'-pyrrolidino-ethyl)-9-fluoroene-carboxamide hydrochloride]
Solubility in ethanol ([1]; in words): very soluble
Solubility in propylene glycol ([1]; in words): very soluble
Solubility in water ([1]; in words): very soluble
LD50 [3, 11]: 75 mg/kg
LD50 ([3]; po, oral, read-out: DL 50 oral): 178 mg/kg
effect on Pseudomonas aeruginosa [8]: more moderate but significant effect
effect on Candida albicans [9]: more moderate but significant effect
bactericidal action [10]: real and significant

COc1ccc2c3c1O[C@H]1[C@@H](O)C=C[C@H]4[C@@H](C2)N(C)CC[C@@]341 [CODEINE, codeine, reference compound]
% variation of cough rating ([7]; t + 10 mn): -22%
Cough rating, m = average of the ratings, after treatment ([7]; t + 10 mn): 0,75
% variation of cough rating ([7]; t + 20 mn): -30%
Cough rating, m = average of the ratings, after treatment ([7]; t + 20 mn): 0,67
